Entries after “also recorded” stand apart in the source; their conditions may differ. No end group written: not given here.
Key:
male C57BL mice = test: Screening for intestinal growth effects (small intestine and colon mass relative to body weight, small intestine-colon sensitivity index); format: in vivo; settings: for Small intestine mass relative to [Gly2]GLP-2 / Preferential growth of small intestine versus colon (small intestine-colon sensitivity): 30 nmol/kg s.c. twice daily, ten days; for Small intestine mass relative to [Gly2]GLP-2: equimolar [Gly2]GLP-2; for Preferential growth of small intestine versus colon (small intestine-colon sensitivity): relative to [Gly2]GLP-2; for colon mass relative to body weight, % [Gly2]GLP-2 / small intestine-colon sensitivity index, (SI/Colon)X/(SI/Colon)[Gly2]GLP-2 %: male C57BL mice, 30 nmol/kg s.c. twice daily for ten days; for small intestine-colon sensitivity index, (SI/Colon)X/(SI/Colon)[Gly2]GLP-2 %: third value column
Summary of the method: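 Groups of six mice were dosed s.c. at 30 nmol/kg twice daily for ten days, with vehicle (PBS, pH 7.4) or equimolar [Gly2]GLP-2 as comparators. The sensitivity index was (SI/Colon) of the compound over that of [Gly2]GLP-2, with ≥1.05 counted as small-intestine-selective and ≤0.95 as colon-selective.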

[1] = system: male Sprague Dawley rats treated with indomethacin; test: Indomethacin-induced small intestinal ulcers (model of Crohn's disease), extent of ulceration; format: in vivo; settings: for Effect on ulceration compared with prednisolone: highest dose 200 nmol/kg vs prednisolone 10 mg/kg; for Estimated extent of ulceration: indomethacin alone 333±21 mm^2
Procedure: FIG. 13 is a graph illustrating the effect of compound 1848 (SEQ ID NO:36) on small intestinal ulcers induced by indomethacin. Male Sprague Dawley rats were treated with vehicle (saline; group 1) or indomethacin (7 mg/kg s.c., once daily for two days; groups 2-7). Indomethacin was given alone (group 2) or in combination with prednisolone (10 mg/kg s.c.; group 3) or with 8, 40, or 200 nmol/kg compound 1848 (SEQ ID NO:36) s.c. […] (groups 4-6). Finally, one group of rats was treated with combination treatment of prednisolone (10 mg/kg s.c.) and compound 1848 (SEQ ID NO:36), 200 nmol/kg s.c. once daily (group 7). Treatment with compound 1848 (SEQ ID NO:36) was initiated 4 days prior to indomethacin and continued during the two days of indomethacin treatment. On day 3, rats were sacrificed and upon necropsy, the small intestine was gently flushed with 10% formalin and filled with formalin for a period of 5 minutes, after which the intestine was cut open along the antimesenteric margin and suspended on a polypropylene plate. Any remaining intestinal contents were carefully removed with a pair of tweezers. After fixation for another 24 hours at room temperature, the tissue was rinsed in Milli-Q water and surface-stained for 20 minutes with Alcian Green 3BX (Chroma) prepared as a 0.5% solution in 1% acetic acid (Bie & Berntsen). After removal of excess staining solution with Milli-Q water the tissue preparation was transferred to 70% alcohol and analyzed using a stereomicroscope at low magnification (×7). Starting at the pylorus, the small intestine was scanned and the shape (circular vs. linear) and size (circular ulcers: diameter, linear ulcers: length×width) of all ulcers was measured using a standard ruler (resolution: 0.5 mm). An ulcer was defined as an area, which lacked epithelial surface. In healing ulcers only the area that still lacked epithelial surface was regarded an ulcer even if the villus structure was still missing in a larger area. All analysis was performed in a blinded manner. […] Treatment with prednisolone caused a significant reduction in the extent of ulceration by app. 29%. […] Values are means±SEM. * P<0.05 vs. indomethacin (group 2). ^#P<0.05 vs. prednisolone (group 3).
Crohn's disease is a chronic disease that causes episodic inflammation of the small intestine. The effect of the GLP-2 analogue 1848 (SEQ ID NO:36) on small intestinal inflammation in an indomethacin-induced model of Crohn's disease was investigated. We have previously shown that administration of indomethacin (s.c, once daily for 2 days) induces small intestinal inflammation characterized by ulcerations and, increases in the pro-inflammatory cytokine, tumour necrosis factor alpha (TNF-α).
To determine the effect of ZP1848 (SEQ ID NO:36) on ulceration 1848 (SEQ ID NO:36) (8, 40 and 200 nmol/kg, s.c, twice daily (9:00 and 16:00)) was given for 4 days prior to the first dose of indomethacin and for an additional two days together with indomethacin. The corticosteroid, prednisolone (10 mg/kg, p.o) was used as a positive control since corticosteroids are commonly used in the treatment of active inflammation in Crohn's disease. In addition a group of animals were given both 1848 (SEQ ID NO:36) (200 nmol/kg) and prednisolone to determine the effects of a combination treatment. Twenty four hours after the last dose of 1848 (SEQ ID NO:36) had been given the animals were sacrificed the small intestine was gently flushed clean and fixed. To determine the extent of ulceration the intestine was cut open along the antimesenteric margin, suspended on a polypropylene plate and surface-stained with Alcian Green 3BX. Starting at the pylorus, the small intestine was scanned and the shape (circular vs. linear) and size (circular ulcers: diameter, linear ulcers: length×width) of all ulcers was measured using a standard ruler (resolution: 0.5 mm). An ulcer was defined as an area, which lacked epithelial surface. […]

Substance	Small intestine mass relative to [Gly2]GLP-2 (male C57BL mice)	Preferential growth of small intestine versus colon (small intestine-colon sensitivity) (male C57BL mice)	colon mass relative to body weight, % [Gly2]GLP-2 (male C57BL mice)	small intestine-colon sensitivity index, (SI/Colon)X/(SI/Colon)[Gly2]GLP-2 % (male C57BL mice)	Effect on ulceration compared with prednisolone [1]	Estimated extent of ulceration ([1]; 8 nmol/kg s.c.) [mm^2]	Estimated extent of ulceration ([1]; 40 nmol/kg s.c.) [mm^2]	Ulceration: addition of prednisolone to high dose compound ([1]; 200 nmol/kg plus prednisolone 10 mg/kg)	Estimated extent of ulceration ([1]; 200 nmol/kg s.c.) [mm^2]	Prevention of indomethacin-induced ulceration (in words) ([1]; 8, 40, 200 nmol/kg)	Reduction of total ulceration ([1]; highest dose (200 nmol/kg) vs indomethacin alone) [%]
[Gly2, Glu3, Leu10, Ser11, Ala16,24,28]hGLP-2(1-33)-NH2 [Compound 1857]	increased small intestine mass relative to [Gly2]GLP-2	preferentially stimulating epithelial growth in the small intestine	90 % [Gly2]GLP-2	130 % [Gly2]GLP-2							
[Gly2, Glu3, Ser8,11, Leu10, Ala16,24,28]hGLP-2(1-33)-(Lys)6-NH2 (HGEGSFSSELSTILDALAARDFIAWLIATKITDKKKKKK-NH2) [Compound 1846]	increased small intestine mass relative to [Gly2]GLP-2	supplementary increase in the weight of the small intestine without significant effecting the weight of the colon; also recorded: preferentially stimulating epithelial growth in the small intestine	102 % [Gly2]GLP-2	118 % [Gly2]GLP-2	greater than the effect of prednisolone						
[Gly2, Glu3, Thr5, Ser8, Leu10, Ala11,16,24,28]hGLP-2(1-33)-(Lys)6-NH2 (HGEGTFSSELATILDALAARDFIAWLIATKITDKKKKKK-NH2) [Compound 1848]	increased small intestine mass relative to [Gly2]GLP-2	supplementary increase in the weight of the small intestine without significant effecting the weight of the colon; also recorded: preferentially stimulating epithelial growth in the small intestine	93 % [Gly2]GLP-2	117 % [Gly2]GLP-2	more effective than the positive control, prednisolone	230±12	216±17	did not produced any additional effect	178±17	prevented indomethacin-induced ulceration in a dose-dependent fashion	~50
[Gly2, Glu3, Thr5, Ser8, Leu10, Ala11,16,24,28]hGLP-2(1-33)-NH2 [Compound 1855]	increased small intestine mass relative to [Gly2]GLP-2	supplementary increase in the weight of the small intestine without significant effecting the weight of the colon; also recorded: preferentially stimulating epithelial growth in the small intestine	88 % [Gly2]GLP-2	120 % [Gly2]GLP-2							
